{"source": "patent US6358885B1", "about": "“Substituted phenylheterocyclic herbicides” (Mississippi State University, priority 1992, dated 2002)", "key": {"bedstraw": {"system": "bedstraw", "assay": "Test B preemergence/postemergence greenhouse plant response rating 0 to 10", "format": "in vivo, Galium aparine", "conditions": "0 to 10 scale", "how_it_was_run": "(§1)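 Test chemicals were sprayed onto freshly planted seed and, concurrently, onto young plants between the one and four leaf stage. After a twelve- to sixteen-day greenhouse period, each species was visually compared with untreated controls.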"}, "cheatgrass": {"system": "cheatgrass", "assay": "Test B preemergence/postemergence greenhouse plant response rating 0 to 10", "format": "in vivo, Bromus secalinus", "conditions": "0 to 10 scale", "how_it_was_run": "as §1"}, "cocklebur": {"system": "cocklebur", "assay": "Test B preemergence/postemergence greenhouse plant response rating 0 to 10", "format": "in vivo, Xanthium pensylvanicum", "conditions": "0 to 10 scale", "how_it_was_run": "as §1"}, "cotton [1]": {"system": "cotton", "assay": "Test B preemergence/postemergence greenhouse plant response rating 0 to 10", "format": "in vivo, Gossypium hirsutum", "conditions": "0 to 10 scale", "how_it_was_run": "as §1"}, "crabgrass": {"system": "crabgrass", "assay": "Test B preemergence/postemergence greenhouse plant response rating 0 to 10", "format": "in vivo, Digitaria spp.", "conditions": "0 to 10 scale", "how_it_was_run": "as §1"}, "giant foxtail [2]": {"system": "giant foxtail", "assay": "Test B preemergence/postemergence greenhouse plant response rating 0 to 10", "format": "in vivo, Setaria faberii", "conditions": "0 to 10 scale", "how_it_was_run": "as §1"}, "morningglory": {"system": "morningglory", "assay": "Test B preemergence/postemergence greenhouse plant response rating 0 to 10", "format": "in vivo, Ipomoea hederacea", "conditions": "0 to 10 scale", "how_it_was_run": "as §1"}, "rape": {"system": "rape", "assay": "Test B preemergence/postemergence greenhouse plant response rating 0 to 10", "format": "in vivo, Brassica napus", "conditions": "0 to 10 scale", "how_it_was_run": "as §1"}, "barley": {"system": "barley", "assay": "Test C preemergence/postemergence greenhouse plant response rating 0 to 100", "format": "in vivo, Hordeum vulgare", "conditions": "POSTEMERGENCE", "how_it_was_run": "(§2)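 Compounds in non-phytotoxic solvent applied preemergence to sandy loam one day after planting, postemergence at the 1–4 leaf stage, or to ~2.5 cm floodwater over silt loam.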"}, "chickweed": {"system": "chickweed", "assay": "Test C preemergence/postemergence greenhouse plant response rating 0 to 100", "format": "in vivo, Stellaria media", "conditions": "POSTEMERGENCE", "how_it_was_run": "as §2"}, "cotton [3]": {"system": "cotton", "assay": "Test C preemergence/postemergence greenhouse plant response rating 0 to 100", "format": "in vivo, Gossypium hirsutum", "conditions": "POSTEMERGENCE", "how_it_was_run": "as §2"}, "giant foxtail [4]": {"system": "giant foxtail", "assay": "Test C preemergence/postemergence greenhouse plant response rating 0 to 100", "format": "in vivo, Setaria faberii", "conditions": "POSTEMERGENCE", "how_it_was_run": "as §2"}, "lambsquarters": {"system": "lambsquarters", "assay": "Test C preemergence/postemergence greenhouse plant response rating 0 to 100", "format": "in vivo, Chenopodium album", "conditions": "POSTEMERGENCE", "how_it_was_run": "as §2"}, "pigweed": {"system": "pigweed", "assay": "Test C preemergence/postemergence greenhouse plant response rating 0 to 100", "format": "in vivo, Amaranthusretroflexus", "conditions": "POSTEMERGENCE", "how_it_was_run": "as §2"}, "soybean": {"system": "soybean", "assay": "Test C preemergence/postemergence greenhouse plant response rating 0 to 100", "format": "in vivo, Glycine max", "conditions": "POSTEMERGENCE", "how_it_was_run": "as §2"}, "velvetleaf": {"system": "velvetleaf", "assay": "Test C preemergence/postemergence greenhouse plant response rating 0 to 100", "format": "in vivo, Abutilon theophrasti", "conditions": "POSTEMERGENCE", "how_it_was_run": "as §2"}, "umbrella sedge": {"system": "umbrella sedge", "assay": "Test C flood test plant response rating 0 to 100", "format": "in vivo, Cyperus difformis", "how_it_was_run": "as §2"}, "duck salad": {"system": "duck salad", "assay": "Test C flood test plant response rating 0 to 100", "format": "in vivo, Heteranthera limosa", "how_it_was_run": "as §2"}, "[5]": {"conditions": "POSTEMERGENCE section, flood test, Rate 1 g/ha"}, "[6]": {"conditions": "POSTEMERGENCE section, flood test, Rate 4 g/ha"}, "[7]": {"conditions": "Rate 16 g/ha, under POSTEMERGENCE head (flood test species)"}, "[8]": {"conditions": "flood test species listed under POSTEMERGENCE, 62 g/ha, 0 to 100 scale"}}, "data": [{"smiles": "COCN1C(=O)COc2cc(F)c(-c3nn4c(c3Br)CCCC4)cc21", "note": "[Compound 67]", "values": [{"measurement": "Plant response rating, Bedstraw", "setting": "bedstraw; POSTEMERGENCE, Rate 10 g/ha", "result": 8}, {"measurement": "Plant response rating, Bedstraw", "setting": "bedstraw; POSTEMERGENCE, Rate 50 g/ha", "result": 10}, {"measurement": "Plant response rating, Bedstraw", "setting": "bedstraw; PREEMERGENCE, Rate 10 g/ha", "result": 0}, {"measurement": "Plant response rating, Bedstraw", "setting": "bedstraw; PREEMERGENCE, Rate 50 g/ha", "result": 3}, {"measurement": "Plant response rating, Cheatgrass", "setting": "cheatgrass; POSTEMERGENCE, Rate 10 g/ha", "result": 5}, {"measurement": "Plant response rating, Cheatgrass", "setting": "cheatgrass; POSTEMERGENCE, Rate 50 g/ha", "result": 6}, {"measurement": "Plant response rating, Cheatgrass", "setting": "cheatgrass; PREEMERGENCE, Rate 10 g/ha", "result": 2}, {"measurement": "Plant response rating, Cheatgrass", "setting": "cheatgrass; PREEMERGENCE, Rate 50 g/ha", "result": 6}, {"measurement": "Plant response rating, Cocklebur", "setting": "cocklebur; POSTEMERGENCE, Rate 10 g/ha", "result": 8}, {"measurement": "Plant response rating, Cocklebur", "setting": "cocklebur; POSTEMERGENCE, Rate 50 g/ha", "result": 9}, {"measurement": "Plant response rating, Cocklebur", "setting": "cocklebur; PREEMERGENCE, Rate 10 g/ha", "result": 0}, {"measurement": "Plant response rating, Cocklebur", "setting": "cocklebur; PREEMERGENCE, Rate 50 g/ha", "result": 0}, {"measurement": "Plant response rating, Cotton", "setting": "cotton [1]; POSTEMERGENCE, Rate 10 g/ha", "result": 10}, {"measurement": "Plant response rating, Cotton", "setting": "cotton [1]; POSTEMERGENCE, Rate 50 g/ha", "result": 10}, {"measurement": "Plant response rating, Cotton", "setting": "cotton [1]; PREEMERGENCE, Rate 10 g/ha", "result": 0}, {"measurement": "Plant response rating, Cotton", "setting": "cotton [1]; PREEMERGENCE, Rate 50 g/ha", "result": 1}, {"measurement": "Plant response rating, Crabgrass", "setting": "crabgrass; POSTEMERGENCE, Rate 10 g/ha", "result": 5}, {"measurement": "Plant response rating, Crabgrass", "setting": "crabgrass; POSTEMERGENCE, Rate 50 g/ha", "result": 6}, {"measurement": "Plant response rating, Crabgrass", "setting": "crabgrass; PREEMERGENCE, Rate 10 g/ha", "result": 0}, {"measurement": "Plant response rating, Crabgrass", "setting": "crabgrass; PREEMERGENCE, Rate 50 g/ha", "result": 2}, {"measurement": "Plant response rating, Giant foxtail", "setting": "giant foxtail [2]; POSTEMERGENCE, Rate 10 g/ha", "result": 5}, {"measurement": "Plant response rating, Giant foxtail", "setting": "giant foxtail [2]; POSTEMERGENCE, Rate 50 g/ha", "result": 6}, {"measurement": "Plant response rating, Giant foxtail", "setting": "giant foxtail [2]; PREEMERGENCE, Rate 10 g/ha", "result": 0}, {"measurement": "Plant response rating, Giant foxtail", "setting": "giant foxtail [2]; PREEMERGENCE, Rate 50 g/ha", "result": 2}, {"measurement": "Plant response rating, Morningglory", "setting": "morningglory; POSTEMERGENCE, Rate 10 g/ha", "result": 10}, {"measurement": "Plant response rating, Morningglory", "setting": "morningglory; POSTEMERGENCE, Rate 50 g/ha", "result": 10}, {"measurement": "Plant response rating, Morningglory", "setting": "morningglory; PREEMERGENCE, Rate 50 g/ha", "result": 2}, {"measurement": "Plant response rating, Rape", "setting": "rape; POSTEMERGENCE, Rate 10 g/ha", "result": 9}, {"measurement": "Plant response rating, Rape", "setting": "rape; POSTEMERGENCE, Rate 50 g/ha", "result": 10}, {"measurement": "Plant response rating, Rape", "setting": "rape; PREEMERGENCE, Rate 50 g/ha", "result": 3}, {"measurement": "Plant response rating Barley Igri", "setting": "barley; 62 g/ha, 0 to 100 scale", "result": 50}, {"measurement": "Plant response rating (0 to 100), Barley Igri", "setting": "barley; Rate 1 g/ha", "result": 20}, {"measurement": "Plant response rating (0 to 100), Barley Igri", "setting": "barley; Rate 4 g/ha", "result": 30}, {"measurement": "Plant response rating (0 to 100), Barley Igri", "setting": "barley; Rate 16 g/ha", "result": 30}, {"measurement": "Plant response rating, Chickweed", "setting": "chickweed; 62 g/ha, 0 to 100 scale", "result": 100}, {"measurement": "Plant response rating (0 to 100), Chickweed", "setting": "chickweed; Rate 1 g/ha", "result": 70}, {"measurement": "Plant response rating (0 to 100), Chickweed", "setting": "chickweed; Rate 4 g/ha", "result": 70}, {"measurement": "Plant response rating (0 to 100), Chickweed", "setting": "chickweed; Rate 16 g/ha", "result": 95}, {"measurement": "Plant response rating, Cotton", "setting": "cotton [3]; 62 g/ha, 0 to 100 scale", "result": 100}, {"measurement": "Plant response rating (0 to 100), Cotton", "setting": "cotton [3]; Rate 1 g/ha", "result": 95}, {"measurement": "Plant response rating (0 to 100), Cotton", "setting": "cotton [3]; Rate 4 g/ha", "result": 100}, {"measurement": "Plant response rating (0 to 100), Cotton", "setting": "cotton [3]; Rate 16 g/ha", "result": 100}, {"measurement": "Plant response rating, Giant foxtail", "setting": "giant foxtail [4]; 62 g/ha, 0 to 100 scale", "result": 40}, {"measurement": "Plant response rating (0 to 100), Giant foxtail", "setting": "giant foxtail [4]; Rate 1 g/ha", "result": 10}, {"measurement": "Plant response rating (0 to 100), Giant foxtail", "setting": "giant foxtail [4]; Rate 4 g/ha", "result": 20}, {"measurement": "Plant response rating (0 to 100), Giant foxtail", "setting": "giant foxtail [4]; Rate 16 g/ha", "result": 30}, {"measurement": "Plant response rating Lambsquarters", "setting": "lambsquarters; 62 g/ha, 0 to 100 scale", "result": 100}, {"measurement": "Plant response rating (0 to 100), Lambsquarters", "setting": "lambsquarters; Rate 1 g/ha", "result": 100}, {"measurement": "Plant response rating (0 to 100), Lambsquarters", "setting": "lambsquarters; Rate 4 g/ha", "result": 100}, {"measurement": "Plant response rating (0 to 100), Lambsquarters", "setting": "lambsquarters; Rate 16 g/ha", "result": 100}, {"measurement": "Plant response rating Pigweed", "setting": "pigweed; 62 g/ha, 0 to 100 scale", "result": 100}, {"measurement": "Plant response rating (0 to 100), Pigweed", "setting": "pigweed; Rate 4 g/ha", "result": 70}, {"measurement": "Plant response rating (0 to 100), Pigweed", "setting": "pigweed; Rate 16 g/ha", "result": 100}, {"measurement": "Plant response rating, Soybean", "setting": "soybean; 62 g/ha, 0 to 100 scale", "result": 95}, {"measurement": "Plant response rating (0 to 100), Soybean", "setting": "soybean; Rate 1 g/ha", "result": 30}, {"measurement": "Plant response rating (0 to 100), Soybean", "setting": "soybean; Rate 4 g/ha", "result": 50}, {"measurement": "Plant response rating (0 to 100), Soybean", "setting": "soybean; Rate 16 g/ha", "result": 80}, {"measurement": "Plant response rating, Velvetleaf", "setting": "velvetleaf; 62 g/ha, 0 to 100 scale", "result": 100}, {"measurement": "Plant response rating (0 to 100), Velvetleaf", "setting": "velvetleaf; Rate 1 g/ha", "result": 70}, {"measurement": "Plant response rating (0 to 100), Velvetleaf", "setting": "velvetleaf; Rate 4 g/ha", "result": 85}, {"measurement": "Plant response rating (0 to 100), Velvetleaf", "setting": "velvetleaf; Rate 16 g/ha", "result": 100}, {"measurement": "Plant response rating (0 to 100), Umbrella sedge", "setting": "umbrella sedge; [5]", "result": 0}, {"measurement": "Plant response rating (0 to 100), Umbrella sedge", "setting": "umbrella sedge; [6]", "result": 0}, {"measurement": "Plant response rating (0 to 100), Umbrella sedge", "setting": "umbrella sedge; [7]", "result": 30}, {"measurement": "Plant response rating Umbrella sedge", "setting": "umbrella sedge; [8]", "result": 70}, {"measurement": "Plant response rating (0 to 100), Duck salad", "setting": "duck salad; [5]", "result": 0}, {"measurement": "Plant response rating (0 to 100), Duck salad", "setting": "duck salad; [6]", "result": 0}, {"measurement": "Plant response rating (0 to 100), Duck salad", "setting": "duck salad; [7]", "result": 0}, {"measurement": "Plant response rating Duck salad", "setting": "duck salad; [8]", "result": 10}]}]}
